{"source": "patent US5559025A", "about": "(priority 1991, dated 1996)", "format_in_all_cases": "biochemical", "key": {"[1]": {"molecular_target": "T1, HRV2 2A proteinase (Human rhinovirus 2, UniProt P04936)"}, "[2]": {"molecular_target": "T1, HRV2 2A proteinase", "settings": "for cleavability by HRV2 2A (in words): trans-cleavage assay, 34° C., up to 32 minutes"}, "[3]": {"molecular_target": "T1, HRV2 2A proteinase", "assay": "Competition of non-cleavable or slightly cleavable peptides with P89 cleaving"}, "[4]": {"molecular_target": "T1, HRV2 2A proteinase", "assay": "Km determination with peptide substrate P89 (trans-cleavage assays)", "settings": "peptide substrate P89, 15° C., 50 to 500 μmol/l, repeated three times with various 2A preparations", "procedure": "[…] For competitive or inhibitory studies, an additional 5 μl of solution containing the substance for competition or inhibition are added. The reaction is stopped by adding an equal volume of a 0.5M HClO4 solution. The samples are cooled to 0° C. for 10 minutes or frozen overnight at -20° C. After centrifugation (Eppendorf centrifuge, 10 min, 4° C.) an equal volume of a 1.4M K2 HPO4 solution is added. The samples are left to stand for 5 minutes at ambient temperature and the precipitate is separated off by centrifuging. […] The reaction products are detected by UV absorption at 214 and 280 nm. The course of the reaction over a period of time (% cleavage of the peptide substrate) is determined by \"reverse phase\" HPLC. The area of the newly formed peptide peak corresponding to the quantity of the carboxy- and amino terminal cleavage products is determined for each case and compared with the area of the uncleaved P89. The cleavage products are determined either by comigration with the corresponding reference peptides and amino acid analysis or by protein sequencing (Hunkapillar and Hood, 1983, loc. cit.). […]\nIn order to identify the Km value for the Wild type substrate P89 a set of trans-cleavage assays are carried out at 15° C. with various P89 substrate concentrations (between 50 and 500 μmol/l). […] For each substrate concentration the reaction speed was determined (% cleavage of P89). […]"}, "[5]": {"settings": "inhibitor added before start of reaction, repeated three times"}}, "note": "“Also recorded” adds a separate entry of the source. Read-outs that look alike come from different tables or passages of the source. *1 amine or outer side, *2 acyl side, *3 side chain or, on linkers, in order; H or OH if unused. Where a SMILES comes first, the peptide text is derived from it. CO = O=C([*:1])[*:2]"}
{"compound": "O[C@H](CS)[C@H](O)CS", "note": "(racemic) [DTT, Dithiothreitol]", "values": [{"measurement": "effect on the activity of 2A relative to peptide P89", "setting": "[1]; [5]", "value": "no effect"}]}
{"compound": "c1cnc2c(c1)ccc1cccnc12", "note": "[1,10-phenanthrolene]", "values": [{"measurement": "effect on the activity of 2A relative to peptide P89", "setting": "[1]; [5]", "value": "a certain inhibiting effect at higher concentrations"}]}
{"compound": "O=c1oc(Cl)c(Cl)c2ccccc12", "note": "[3,4-dichloroisocumarin]", "values": [{"measurement": "effect on the activity of 2A relative to peptide P89", "setting": "[1]; [5]", "value": "no activity"}]}
{"compound": "N=C(N)c1ccc(CS(=O)(=O)F)cc1", "note": "[APMSF, 4-(Amidinophenyl)methanesulphonylfluoride]", "values": [{"measurement": "effect on the activity of 2A relative to peptide P89", "setting": "[1]; [5]", "value": "no activity"}]}
{"compound": "CC(C)CC(NC(=O)C1OC1C(=O)O)C(=O)NCCCCNC(=N)N", "note": "(stereo not drawn) [E-64]", "values": [{"measurement": "effect on the activity of 2A relative to peptide P89", "setting": "[1]; [5]", "value": "no effect"}]}
{"compound": "O=C(O)CN(CCN(CC(=O)O)CC(=O)O)CC(=O)O", "note": "[EDTA]", "values": [{"measurement": "effect on the activity of 2A relative to peptide P89", "setting": "[1]", "value": "a certain inhibiting effect at higher concentrations"}]}
{"compound": "CC(=O)N[C@@H](CC(C)C)C(=O)N[C@@H](CC(C)C)C(=O)N[C@H](C=O)CCCNC(=N)N", "note": "[Leupeptine]", "values": [{"measurement": "effect on the activity of 2A relative to peptide P89", "setting": "[1]; [5]", "value": "ineffectiveness"}]}
{"compound": "CCN1C(=O)C=CC1=O", "note": "[N-ethylmaleimide]", "values": [{"measurement": "effect on the activity of 2A relative to peptide P89", "setting": "[1]; [5]", "value": "strongly inhibit"}]}
{"compound": "Cc1ccc(S(=O)(=O)N[C@@H](CCCCN)C(=O)CCl)cc1", "note": "[TLCK, Tosyllysylchloromethylketone]", "values": [{"measurement": "effect on the activity of 2A relative to peptide P89", "setting": "[1]; [5]", "value": "only effective at higher concentrations"}]}
{"compound": "Cc1ccc(S(=O)(=O)N[C@@H](Cc2ccccc2)C(=O)CCl)cc1", "note": "[TPCK, Tosylphenylalanylchloromethylketone]", "values": [{"measurement": "effect on the activity of 2A relative to peptide P89", "setting": "[1]; [5]", "value": "only effective at higher concentrations"}]}
{"compound": "CC(C)[C@H](NC(=O)[C@H](CCCNC(=N)N)NC(=O)N[C@@H](Cc1ccccc1)C(=O)O)C(=O)N[C@H](C=O)CCCNC(=N)N", "note": "[antipain] ({Phe-CO}-Arg-Val-Arg-aldehyde)", "values": [{"measurement": "effect on the activity of 2A relative to peptide P89", "setting": "[1]; [5]", "value": "highly effective"}]}
{"compound": "N[C@@H](CS)C(=O)O", "note": "[cysteine]", "values": [{"measurement": "effect on the activity of 2A relative to peptide P89", "setting": "[1]; [5]", "value": "no effect"}]}
{"compound": "CC(C)C[C@H](NC(=O)N[C@H](C(=O)N[C@@H](CCC(N)=O)C(=O)N[C@@H](C)C=O)[C@@H]1CCNC(=N)N1)C(=O)O", "note": "[elastatinal]", "values": [{"measurement": "effect on the activity of 2A relative to peptide P89", "setting": "[1]; [5]", "value": "highly effective"}]}
{"compound": "NC(=O)CI", "note": "[iodacetamide]", "values": [{"measurement": "effect on the activity of 2A relative to peptide P89", "setting": "[1]; [5]", "value": "strongly inhibit"}]}
{"compound": "Ac-IITTAGPSDM-NH2 [P145, IITTAGPSDM]", "values": [{"measurement": "cleavability by HRV2 2A (in words)", "setting": "[2]", "value": "cannot be cleaved"}, {"measurement": "ability to act as competitor/inhibitor of P89 cleaving", "setting": "[3]", "value": "became competitive; also recorded: behaved competitively; also recorded: competitive inhibitors"}]}
{"compound": "Ac-ITTAGPSD-NH2 [WTD8, ITTAGPSD]", "values": [{"measurement": "cleavability by HRV2 2A (in words)", "setting": "[2]", "value": "cannot be cleaved"}, {"measurement": "ability to act as competitor/inhibitor of P89 cleaving", "setting": "[3]", "value": "became competitive; also recorded: behaved competitively; also recorded: competitive inhibitors"}]}
{"compound": "Ac-ITTAGPSDMYVH-NH2 [D]", "values": [{"measurement": "cleavability by HRV2 2A (in words)", "setting": "[2]", "value": "fall in cleavability of one order of magnitude; also recorded: reduction in the cleavability by one order of magnitude"}]}
{"compound": "Ac-TRPIITTAG-NH2 [WTN9]", "values": [{"measurement": "% cleavage compared with P89", "setting": "[2]", "value": 10, "unit": "%"}, {"measurement": "cleavability by HRV2 2A (in words)", "setting": "[2]", "value": "sufficient for a cleavage"}]}
{"compound": "TRIITSAGPSDMYV [B4, Thr for Ser at position P2]", "values": [{"measurement": "ability to act as competitor/inhibitor of P89 cleaving", "setting": "[3]", "value": "became competitive; also recorded: behaved competitively"}]}
{"compound": "TRPIITNAGPSDMYV [B8, Thr for Asn at position P2]", "values": [{"measurement": "ability to act as competitor/inhibitor of P89 cleaving", "setting": "[3]", "value": "became competitive; also recorded: behaved competitively"}]}
{"compound": "TRPIITTNGPSDMYV [G5, Ala for Asn at position P1]", "values": [{"measurement": "cleavability by HRV2 2A (in words)", "setting": "[2]", "value": "dramatically reduced cleavability"}, {"measurement": "ability to act as competitor/inhibitor of P89 cleaving", "setting": "[3]", "value": "became competitive; also recorded: behaved competitively"}]}
{"compound": "TRPIITTPSDMYVH [AB2, deleted Wild type substrate, missing cleavage site]", "values": [{"measurement": "cleavability by HRV2 2A (in words)", "setting": "[2]", "value": "No cleaving (nor any alternative) is observed; also recorded: No cleavage (nor any alternative cleavage) was observed; also recorded: cannot be cleaved"}, {"measurement": "ability to act as competitor/inhibitor of P89 cleaving", "setting": "[3]", "value": "became competitive; also recorded: behaved competitively; also recorded: competitive inhibitors"}]}
{"compound": "acetyl-TRPIITTA*GPSDMYVH-NH2 (Ac-TRPIITTAGPSDMYVH-NH2; not fully specified (residue 8); printed as acetyl-TRPIITTA*GPSDMYVH-NH2) [P89, reference compound]", "values": [{"measurement": "cleavability by HRV2 2A (in words)", "setting": "[2]", "value": "specifically cleaved"}, {"measurement": "Km", "setting": "[4]", "value": 540, "unit": "µM"}]}
{"compound": "chymostatin", "values": [{"measurement": "effect on the activity of 2A relative to peptide P89", "setting": "[1]; [5]", "value": "highly effective"}]}
